Experimental data: article PMC6136712, “Ex vivo drug sensitivity testing as a means for drug repurposing in esophageal adenocarcinoma” (PLoS ONE, 2018)
Counter-ions that a name gives are not always drawn. Like-named read-outs stand apart in the source and are kept apart here.

What was measured:
Format in all cases: cell-based, human
[1] = test system: EAC47 cells; test: Epigenetic compound library screen (CellTiter-Glo, 72 h); conditions: EAC47, 6μM; for % cell killing /control / cytotoxicity at 6 µM: 72 h; for cytotoxicity at 6 µM: Homo sapiens, read-out: % cell killing /control
Description: (§1) We tested a 163 compound epigenetic library that consists of inhibitors and activators of epigenetic modifying enzymes (writers, erasers and readers). All compounds were dissolved in 100% DMSO and tested in duplicate at a nominal test concentration of 6μM. Wells with assay buffer containing DMSO served as negative controls. 1000 exponentially growing cells were seeded per well in 384-well micro-titer plates and incubated in the presence of compounds in a humidified environment at 37°C and 5% CO2. After 72 hours of treatment, cell viability was assessed by measuring ATP levels via bioluminescence (CellTiter-Glo, Promega). […] Curve fitting and statistical analyses are performed in GraphPad prism.

[2] = test system: Flo-1 cells; test: as above; conditions: Flo-1, 6μM; for cytotoxicity at 6 µM: Homo sapiens, read-out: % cell killing /control
Description: as §1

[3] = test system: OE33 cells; test: as above; conditions: OE33, 6μM; for cytotoxicity at 6 µM: Homo sapiens, read-out: % cell killing /control
Description: as §1

[4] = test system: normal esophageal epithelium cell line EACN42; test: FDA library drug sensitivity testing (CellTiter-Glo, 72 h), normal control cells; set-up: key to DSS: modified drug sensitivity score (DSSmod) from dose-response curve fit; conditions: EACN42 normal esophageal cells, 72 h; for EC50: cell viability (ATP), max test concentration 10μM; for DSS: drug sensitivity score
In short: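 HPV E6-E7-immortalized normal human esophageal epithelial cells, 1000 per well, exposed 72 h at 37 °C to drugs in duplicate from 10μM top concentration across a 20,000-fold range. Viability by ATP bioluminescence; DMSO wells as negative control; curves scored with modified drug sensitivity score (DSSmod).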

[5] = test system: EAC47 cells; test: FDA library drug sensitivity testing (CellTiter-Glo, 72 h)
Text: (§2) OE33, OE19 and SKGT2 human esophageal adenocarcinoma cell lines were obtained from the European Collection of Cell Culture ([…]). Flo1, EAC42 and EAC47 cells were established in the Capobianco Laboratory. EAC42 and EAC47 human esophageal adenocarcinoma cell lines are derived from patients undergoing surgery at the Miller School of Medicine, University of Miami. The Capobianco laboratory obtained written informed consent from all patients and approval from the Institutional Research Ethics Committee.
(§3) Drug sensitivity testing (DST) was performed as described previously. […] Individual drugs were dissolved in 100% DMSO and tested in duplicates starting at a maximal test concentration of 10μM then over a 20,000-fold concentration range to generate dose response curves. Wells with assay buffer containing DMSO served as negative controls. 1000 exponentially growing cells were seeded per well in 384-well micro-titer plates and incubated in the presence of compounds in a humidified environment at 37°C and 5% CO2. After 72 hours of treatment, cell viability was assessed by measuring ATP levels via bioluminescence (CellTiter-Glo, Promega) according to manufactures recommendations. Interpretation of curve parameters was performed according to the modified drug sensitivity scoring (DSSmod) function developed by Swords et al. […] Given in this way, the sDSSmod incorporated information on each drug’s potency, efficacy, effect range and therapeutic index, making it possible to prioritize compounds over multiple parameters using a single numerical metric. […] All calculations and scoring routines are implemented in MatLab and additional curve fitting and statistical analyses are performed in GraphPad prism.

[6] = test system: EAC42 cells; test: as above
Text: as §2, §3

[7] = test system: OE19 cells; test: as above; conditions: sDSSmod = DSSmod (patient cells) - DSSmod (normal cells)
Text: as §2, §3

[8] = test system: SK-GT2 cells; test: as above
Text: as §2, §3

[9] = test system: OE33 cells; test: as above
Text: as §2, §3

[10] = test system: Flo-1 cells; test: as above
Text: as §2
Drug sensitivity testing (DST) was performed as described previously. […] Individual drugs were dissolved in 100% DMSO and tested in duplicates starting at a maximal test concentration of 10μM then over a 20,000-fold concentration range to generate dose response curves. Wells with assay buffer containing DMSO served as negative controls. 1000 exponentially growing cells were seeded per well in 384-well micro-titer plates and incubated in the presence of compounds in a humidified environment at 37°C and 5% CO2. After 72 hours of treatment, cell viability was assessed by measuring ATP levels via bioluminescence (CellTiter-Glo, Promega) according to manufactures recommendations. Interpretation of curve parameters was performed according to the modified drug sensitivity scoring (DSSmod) function developed by Swords et al. As a final step, the selective DSSmod (sDSSmod) for each drug in each patient screen is calculated according to the formula sDSSmod = DSSmod (patient cells)—DSSmod (normal cells). Given in this way, the sDSSmod incorporated information on each drug’s potency, efficacy, effect range and therapeutic index, making it possible to prioritize compounds over multiple parameters using a single numerical metric. In addition, this methodology allows us to rank compounds by cancer-selective efficacy for each individual patient. […] All calculations and scoring routines are implemented in MatLab and additional curve fitting and statistical analyses are performed in GraphPad prism.

[11] = EAC47, sDSSmod = DSSmod (patient cells) - DSSmod (normal cells)
[12] = EAC42, sDSSmod = DSSmod (patient cells) - DSSmod (normal cells)
[13] = SK-GT2, sDSSmod = DSSmod (patient cells) - DSSmod (normal cells)
[14] = OE33, sDSSmod = DSSmod (patient cells) - DSSmod (normal cells)
[15] = Flo-1, sDSSmod = DSSmod (patient cells) - DSSmod (normal cells)

Compound | DSS [4] | sDSSmod [7] | EC50 ([4]; Homo sapiens) [nM] | sDSSmod [5, 11] | sDSSmod [6, 12] | sDSSmod [8, 13] | sDSSmod [10, 15] | also measured
O=C(/C=C/c1cccc(C(=O)NO)c1)NO [CBHA] |  |  |  |  |  |  |  | % cell killing /control [1]: 20.30%
CC[C@@H]1C(=O)N(C)c2cnc(Nc3ccc(C(=O)NC4CCN(C)CC4)cc3OC)nc2N1C1CCCC1 [BI-2536] |  |  |  |  |  |  |  | cytotoxicity at 6 µM [1]: 39.5%; cytotoxicity at 6 µM [2]: 95.9%; cytotoxicity at 6 µM [3]: 77.6%
O=Nc1ccc(O)c2ncccc12 [NSC-3852] |  |  |  |  |  |  |  | % cell killing /control [3]: 42.71%
Bleomycin sulfate | 30.58 | -18.9933 |  |  |  |  |  | EC50 [4]: 370 nM; sDSSmod [5]: -29.4923; sDSSmod [6]: -29.1318; sDSSmod [8]: -29.9671; sDSSmod [9]: -15.1946; sDSSmod [10]: -18.12
O=C(/C=C/c1cccc(S(=O)(=O)Nc2ccccc2)c1)NO [Belinostat] | 19 | -19.002 | 1080 | 6.846 | 10.9 | -19.002 | -19 | sDSSmod [9, 14]: -19.002
O=C(CCCCCCC(=O)Nc1ccccc1)NO [SAHA] |  |  |  |  |  |  |  | % cell killing /control [2]: 46.32%
Cc1sc2c(c1C)C(c1ccc(Cl)cc1)=N[C@@H](CC(N)=O)c1nnc(C)n1-2 [CPI203] |  |  |  |  |  |  |  | sensitivity in words [1]: sensitivity; % cell killing /control [1]: 43.29%; % cell killing /control [2]: 48.79%
CC[C@@]1(O)C(=O)OCc2c1cc1n(c2=O)Cc2cc3c(CN(C)C)c(O)ccc3nc2-1 [Topotecan HCl] | 43.21 | -36.6414 | 60 | -11.6273 | -9.367 | -13.0332 | -20.26 | 
Nc1nc(F)nc2c1ncn2[C@@H]1O[C@H](COP(=O)(O)O)[C@@H](O)[C@@H]1O [Fludara] | 46.34 | -23.9486 | 50 | -46.3431 | -46.3431 | -12.9068 | -5.23 | sDSSmod [9, 14]: -12.9868
CC(/C=C/C(=O)NO)=C\[C@@H](C)C(=O)c1ccc(N(C)C)cc1 [Trichostatin A] |  |  |  |  |  |  |  | % cell killing /control [1]: 109.49%; % cell killing /control [2]: 96.32%; % cell killing /control [3]: 98.02%
CC(C)n1c(/C=C/C(O)CC(O)CC(=O)O)c(-c2ccc(F)cc2)c2ccccc21 (stereo not drawn) [Fluvastatin sodium] | 17.36 | -16.7184 | 1060 | -15.1417 | -14.3727 | -17.1525 | -9.71 | sDSSmod [9, 14]: -10.5948
O=C(CCCCCCC(=O)Nc1ccccc1)NO [Vorinostat] | 5.09 | 9.843 |  | 5.288 | 7.485 |  | 9.58 | sDSSmod [9, 14]: 15.71
Nc1ccccc1NC(=O)c1ccc(CNC(=O)OCc2cccnc2)cc1 [Entinostat (MS-275), Entinostat] |  |  |  |  |  |  |  | cytotoxicity at 6 µM [1]: 36.6%; cytotoxicity at 6 µM [2]: 43.3%; cytotoxicity at 6 µM [3]: 76%
CCN(CC)C(=S)SSC(=S)N(CC)CC [Disulfiram] | 0 |  |  |  | 7.112 | 10.36 |  | cytotoxicity at 6 µM [1]: 33.9%
Cc1nc(Nc2ncc(C(=O)Nc3c(C)cccc3Cl)s2)cc(N2CCN(CCO)CC2)n1 [Dasatinib] | 12.81 | -12.8072 | 80 | -10.2728 | -9.752 | -12.8072 | -12.8 | sDSSmod [9, 14]: -12.8072
O=C(CCCCCN1C(=O)c2cccc3cccc(c23)C1=O)NO [Scriptaid] |  |  |  |  |  |  |  | cytotoxicity at 6 µM [2]: 32.5%
CN(C)c1ccc(C(=O)NCCCCCCC(=O)NO)cc1 [M-344] |  |  |  |  |  |  |  | % cell killing /control [2]: 56.82%; % cell killing /control [3]: 68.75%
Nc1nc(=O)n([C@H]2C[C@H](O)[C@@H](CO)O2)cc1F [2'-Deoxy-5-fluorocytidine] |  |  |  |  |  |  |  | cytotoxicity at 6 µM [1]: 86.8%; cytotoxicity at 6 µM [3]: 65.2%
CC1(C)CCC2=C(O1)c1ccccc1C(=O)C2=O [β-Lapachone] |  |  |  |  |  |  |  | cytotoxicity at 6 µM [2]: 40.9%
CCCCc1nc2cc(/C=C/C(=O)NO)ccc2n1CCN(CC)CC [SB 939] |  |  |  |  |  |  |  | cytotoxicity at 6 µM [2]: 78.8%; cytotoxicity at 6 µM [3]: 98.9%
O=C(/C=C/c1cccc(S(=O)(=O)Nc2ccccc2)c1)NO [PXD101] |  |  |  |  |  |  |  | cytotoxicity at 6 µM [2]: 77.6%; cytotoxicity at 6 µM [3]: 92.3%
Cc1cc(C)cc(C(=O)NOCCCCCC(=O)NO)c1 [LMK 235] |  |  |  |  |  |  |  | % cell killing /control [1]: 62.72%; % cell killing /control [3]: 80.31%
CO[C@H]1C[C@@H]2CC[C@@H](C)[C@@](O)(O2)C(=O)C(=O)N2CCCC[C@H]2C(=O)O[C@H]([C@H](C)C[C@@H]2CC[C@@H](OC(=O)C(C)(CO)CO)[C@H](OC)C2)CC(=O)[C@H](C)/C=C(\C)[C@@H](O)[C@@H](OC)C(=O)[C@H](C)C[C@H](C)/C=C/C=C/C=C/1C [Temsirolimus] | 11.93 | -11.9329 | > 10000 | -9.994 | -5.1083 | -11.9329 | -11.93 | sDSSmod [9, 14]: -11.9329
CC(C)C[C@H](NC(=O)[C@H](Cc1ccccc1)NC(=O)c1cnccn1)B(O)O [Bortezomib] | 35.58 | -35.5757 | 200 | -23.5292 | -21.0264 | -35.5649 | -35.57 | sDSSmod [9, 14]: -35.5757
Nc1ncnc2c1c(I)cn2[C@@H]1O[C@H](CO)[C@@H](O)[C@H]1O [5-Iodotubercidin] |  |  |  |  |  |  |  | % cell killing /control [2]: 50.40%
CN(C)Cc1c(C(=O)NCCOc2ccc(C(=O)NO)cc2)oc2ccccc12 [PCI-24781 (Abexinostat), Abexinostat] |  |  |  |  |  |  |  | cytotoxicity at 6 µM [3]: 46%
CC[C@@]1(O)C(=O)OCc2c1cc1n(c2=O)Cc2cc3ccccc3nc2-1 [Camptothecin] | 52.69 | -34.9341 | 20 | -15.9763 | -13.5945 | -11.3049 | -20.76 | 
CO[C@H]1C[C@@H]2CC[C@@H](C)[C@@](O)(O2)C(=O)C(=O)N2CCCC[C@H]2C(=O)O[C@H]([C@H](C)C[C@@H]2CC[C@@H](O)[C@H](OC)C2)CC(=O)[C@H](C)/C=C(\C)[C@@H](O)[C@@H](OC)C(=O)[C@H](C)C[C@H](C)/C=C/C=C/C=C/1C [Rapamycin] | 11.01 | -11.012 | 3000 | -8.931 | -6.15 | -11.012 | -10.72 | sDSSmod [9, 14]: -11.012
